Results published in patent US11274124B2, “Tubulysin analogues as anticancer agents and payloads for antibody-drug conjugates and methods of treatment therewith” (William Marsh Rice University, priority 2017, dated 2022).
Like-named read-outs stand apart in the source and are kept apart here.

Columns and labels:
[1] = tested on: MES SA (uterine sarcoma cell line); experiment: In vitro cytotoxicity assay (CellTiter-Glo, 72 hours), MES SA; format: cell-based
[2] = tested on: HEK 293T (human embryonic kidney cancer cell line); experiment: In vitro cytotoxicity assay (CellTiter-Glo, 72 hours), HEK 293T; format: cell-based
[3] = tested on: MES SA DX (MES SA cell line with marked multi-drug resistance); experiment: In vitro cytotoxicity assay (CellTiter-Glo, 72 hours), MES SA DX
[4] = Homo sapiens, MES-SA, 72 h, read-out: MES SA, IC50 Value in nM
[5] = Homo sapiens, HEK-293T, 72 h, read-out: HEK 293T, IC50 Value in nM
[6] = Homo sapiens, MES-SA, 72 h, read-out: MES SA DX, IC50 Value in nM
[7] = Homo sapiens, MES-SA, 72 h, read-out: MES SA, IC50
[8] = Homo sapiens, HEK-293T, 72 h, read-out: HEK 293T, IC50
[9] = Homo sapiens, MES-SA, 72 h, read-out: MES SA DX, IC50

Row | SMILES | IC50 [1, 4] [nM] | IC50 [2, 5] [nM] | IC50 [3, 6] [nM] | IC50 [1, 7] [nM] | IC50 [2, 8] [nM] | IC50 [3, 9] [nM] | IC50 ([1]; Table 2, 72 hours, CellTiter-Glo, read-out: MES SA, IC50 Value in nM) [nM] | IC50 ([2]; Table 2, 72 hours, CellTiter-Glo, read-out: HEK 293T, IC50 Value in nM) [nM] | IC50 ([3]; read-out: MES SA DX, IC50 Value in nM, Table 2, 72 hours, CellTiter-Glo) [nM] | cytotoxicities against the marked drug resistant cancer cell line MES SA DX (in words) [3]
1 | CC(=O)O[C@H](C[C@H](C(C)C)N(C)C(=O)[C@@H](NC(=O)[C@H]1CCCCN1C)C(C)C)c1cccc(C(=O)N[C@@H](Cc2ccccc2)C[C@H](C)C(=O)O)n1 [Tb65, (2S,4R)-4-[({6-[(1R,3R)-1-Acetoxy-4-methyl-3-{methyl[(2S)-3-methyl-2-({[(2R)-1-methylpiperidin-2-yl]carbonyl}amino)butanoyl]amino}pentyl]pyridin-2-yl}carbonyl)amino]-2-methyl-5-phenylpentanoic acid] | 2.44 | 2.04 | 279 | – | – | – | – | – | – | –
2 | CC(=O)O[C@H](CC(C(C)C)N(C)C(=O)[C@@H](NC(=O)[C@H]1CCCCN1C)C(C)C)c1nc(C(=O)NC(Cc2ccccc2)CC(C)C(=O)O)c(CCO)s1 (stereo in doubt) [Tb113, (2R,4S)-4-[({2-[(1R,3S)-1-Acetoxy-4-methyl-3-{methyl[(2S)-3-methyl-2-{[(1-methylpiperidin-2-yl)-carbonyl]amino}butanoyl]amino}pentyl]-5-(2-hydroxyethyl)-1,3-thiazol-4-yl}carbonyl)amino]-2-methyl-5-phenylpentanoic acid] | 5.79 | 0.315 | > 400 | – | – | – | – | – | – | –
3 | CC(C)[C@@H](C[C@@H](O)c1nc(C(=O)N[C@@H](Cc2ccccc2)C[C@H](C)C(=O)O)cs1)N(C)C(=O)[C@H](CC(F)(F)F)NC(=O)[C@H]1CCCN1C [Tb84, (2S,4R)-4-[({2-[(1R,3R)-1-Hydroxy-4-methyl-3-{methyl[(2S)-4,4,4-trifluoro-2-({[(2R)-1-methyl-pyrrolidin-2-yl]carbonyl}amino)butanoyl]amino}pentyl]-1,3-thiazol-4-yl}carbonyl)amino]-2-meth-yl-5-phenylpentanoic acid] | > 1000 | > 1000 | > 1000 | – | – | – | – | – | – | –
4 | COC(=O)[C@H](CO)C[C@H](Cc1ccccc1)NC(=O)c1csc([C@@H](C[C@H](C(C)C)N(C)C(=O)[C@@H](NC(=O)[C@H]2CCCCN2C)C(C)C)OC(C)=O)n1 [Tb120, Methyl (2S,4R)-4-{2-[(1R,3R)-1-acetoxy-3-{(S)—N,3-dimethyl-2-[(R)-1-methylpiperidine-2-carboxamido]butanamido}-4-methylpentyl]thiazole-4-carboxamido}-2-(hydroxymethyl)-5-phenylpentanoate] | 0.059 | 0.039 | > 14 | 0.059 | 0.039 | > 14 | – | – | – | –
5 | COC(=O)[C@@H](C)C[C@H](Cc1ccccc1)NC(=O)c1nc([C@@H](C[C@H](C(C)C)N(C)C(=O)[C@@H](NC(=O)[C@H]2C[C@H](O)CCN2C)C(C)C)OC(C)=O)sc1C(C)C [Tb74, Methyl (2S,4R)-4-[({2-[(1R,3R)-1-acetoxy-3-{[(2S)-2-({[(2R,4R)-4-hydroxy-1-methylpiperidin-2-yl]-carbonyl}amino)-3-methylbutanoyl](methyl)amino}-4-methylpentyl]-5-isopropyl-1,3-thiazol-4-yl}-carbonyl)amino]-2-methyl-5-phenylpentanoate] | 5.32 | 2.46 | > 400 | – | – | – | – | – | – | –
6 | CCOC(=O)[C@@H](C)CC(Cc1ccccc1)NC(=O)c1nc([C@@H](C[C@H](C(C)C)N(C)C(=O)[C@@H](NC(=O)[C@H]2CCCCN2C)C(C)C)OC(C)=O)sc1CCOCc1ccccc1 (stereo in doubt) [Tb110, Ethyl (2S,4S)-4-[({2-[(1R,3R)-1-acetoxy-4-methyl-3-{methyl[(2S)-3-methyl-2-{[(1-methylpiperidin-2-yl)carbonyl]amino}butanoyl]amino}pentyl]-5-[2-(benzyloxy)ethyl]-1,3-thiazol-4-yl}carbonyl)-amino]-2-methyl-5-phenylpentanoate] | 3.09 | 1.87 | > 400 | – | – | – | – | – | – | –
7 | COC(=O)[C@@H](C)C[C@H](Cc1ccccc1)NC(=O)c1csc([C@@H](C[C@H](C(C)C)N(C)C(=O)[C@@H](NC(=O)[C@H]2CCCCN2C)C(C)C)OC(C)=O)n1 [Tb32, reference compound] | – | – | – | – | – | – | 0.012 | 0.002 | 1.29 | –
8 | CCOC(=O)C(C)CC(Cc1ccccc1)NC(=O)c1nc([C@@H](CC(C(C)C)N(C)C(=O)[C@@H](NC(=O)[C@H]2CCCCN2C)C(C)C)OC(C)=O)sc1CCO (stereo in doubt) [Tb112, Ethyl (2R,4S)-4-[({2-[(1R,3S)-1-acetoxy-4-methyl-3-{methyl[(2S)-3-methyl-2-{[(1-methylpiperidin-2-yl)carbonyl]amino}butanoyl]amino}pentyl]-5-(2-hydroxyethyl)-1,3-thiazol-4-yl}carbonyl)amino]-2-methyl-5-phenylpentanoate] | 0.1 | 0.09 | > 400 | 0.1 | 0.09 | > 400 | – | – | – | –
9 | COC(=O)[C@@H](C)C[C@H](Cc1ccccc1)NC(=O)c1csc([C@@H](C[C@H](C(C)C)N(C)C(=O)[C@H](CC(F)(F)F)NC(=O)[C@H]2CCCN2C)OC(C)=O)n1 [Tb82, Methyl (2S,4R)-4-[({2-[(1R,3R)-1-acetoxy-4-methyl-3-{methyl[(2S)-4,4,4-trifluoro-2-({[(2R)-1-methylpyrrolidin-2-yl]carbonyl}amino)butanoyl]amino}pentyl]-1,3-thiazol-4-yl}carbonyl)amino]-2-methyl-5-phenylpentanoate] | 47.5 | 51.6 | > 1000 | – | – | – | – | – | – | –
10 | CC(=O)O[C@H](C[C@H](C(C)C)N(C)C(=O)[C@@H](NC(=O)[C@H]1CCCCN1C)C(C)C)c1nc(C(=O)NC(Cc2ccccc2)C[C@H](C)C(=O)O)c(CCOCc2ccccc2)s1 (stereo in doubt) [Tb111, (2S,4S)-4-[({2-[(1R,3R)-1-acetoxy-4-methyl-3-{methyl[(2S)-3-methyl-2-{[(1-methylpiperidin-2-yl)carbonyl]amino}butanoyl]amino}pentyl]-5-[2-(benzyloxy)ethyl]-1,3-thiazol-4-yl}carbonyl)-amino]-2-methyl-5-phenylpentanoic acid] | 0.04 | 0.006 | 1.54 | 0.04 | 0.006 | 1.54 | – | – | – | relatively potent (low nanomolar)
11 | CC(=O)O[C@H](C[C@H](C(C)C)N(C)C(=O)[C@H](C)NC(=O)[C@H]1CCCCN1C)c1nc(C(=O)N[C@@H](Cc2ccccc2)C[C@H](C)C(=O)O)cs1 [Tb91, (2S,4R)-4-[({2-[(1R,3R)-1-Acetoxy-4-methyl-3-{methyl[(2S)-2-({[(2R)-1-methylpiperidin-2-yl]car-bonyl}amino)propanoyl]amino}pentyl]-1,3-thiazol-4-yl}carbonyl)amino]-2-methyl-5-phenylpentanoic acid] | > 1000 | > 1000 | > 1000 | – | – | – | – | – | – | –
12 | CCN[C@@H](C[C@H](Cc1ccccc1)NC(=O)c1csc([C@@H](C[C@H](C(C)C)N(C)C(=O)[C@@H](NC(=O)[C@H]2CCCCN2C)C(C)C)OC(C)=O)n1)C(=O)OC [Tb118, Methyl (2S)-4-{[(2-{1-acetoxy-4-methyl-3-[methyl(3-methyl-2-{[(1-methylpiperidin-2-yl)carbonyl]-amino}butanoyl)amino]pentyl}-1,3-thiazol-4-yl)carbonyl]amino}-2-(ethylamino)-5-phenylpentanoate] | 0.14 | 0.015 | 5.6 | 0.14 | 0.015 | 5.6 | – | – | – | relatively potent (low nanomolar)
13 | COC(=O)C12C3C4C1C1C2C3C41NC(=O)c1csc([C@@H](C[C@H](C(C)C)N(C)C(=O)[C@@H](NC(=O)[C@H]2CCCCN2C)C2CC2)OC(C)=O)n1 (stereo partly drawn) [Tb99, Methyl 4-[({2-[(1R,3R)-1-acetoxy-3-{[(2S)-2-cyclopropyl-2-({[(2R)-1-methylpiperidin-2-yl]carbonyl}-amino)acetyl](methyl)amino}-4-methylpentyl]-1,3-thiazol-4-yl}carbonyl)amino]cubane-1-carboxylate] | > 1000 | > 1000 | > 1000 | – | – | – | – | – | – | –
14 | CC(=O)O[C@H](C[C@H](C(C)C)N(C)C(=O)[C@@H](NC(=O)[C@H]1CCCCN1C)C(C)C)c1nc(C(=O)N[C@@H](Cc2ccccc2)CC2C(=O)OC(C)(C)OC2=O)cs1 [Tb114, 1-(4-{[1-(2,2-Dimethyl-4,6-dioxo-1,3-dioxan-5-yl)-3-phenylpropan-2-yl]carbamoyl}-1,3-thiazol-2-yl)-4-methyl-3-[methyl(3-methyl-2-{[(1-methylpiperidin-2-yl)carbonyl]amino}butanoyl)amino]-pentyl acetate] | 1.23 | 0.524 | > 400 | – | – | – | – | – | – | –
15 | COC(=O)[C@@H](C)C[C@H](Cc1ccccc1)NC(=O)c1csc([C@@H](C[C@H](C(C)C)N(C)C(=O)[C@H](C)NC(=O)[C@H]2CCCCN2C)OC(C)=O)n1 [Tb89, Methyl (2S,4R)-4-[({2-[(1R,3R)-1-acetoxy-4-methyl-3-{methyl[(2S)-2-({[(2R)-1-methylpiperidin-2-yl]carbonyl}amino)propanoyl]amino}pentyl]-1,3-thiazol-4-yl}carbonyl)amino]-2-methyl-5-phenylpentanoate] | > 1000 | > 1000 | > 1000 | – | – | – | – | – | – | –
